Results from ChEMBL document CHEMBL4330118, “Structure-guided discovery of a novel, potent, and orally bioavailable 3,5-dimethylisoxazole aryl-benzimidazole BET bromodomain inhibitor” (Bioorg Med Chem, 2019).

How the values were obtained:
Assay type in all cases: ADME, organism-based
[1] = Plasma concentration in mouse xenografted with human SU-DHL10 cells at 10 mg/kg, po administered twice daily via gavage for 21 days measured at 2 hrs post last dose
[2] = Plasma concentration in mouse xenografted with human SU-DHL10 cells at 3 mg/kg, po administered twice daily via gavage for 21 days measured at 12 hrs post last dose
[3] = Plasma concentration in mouse xenografted with human SU-DHL10 cells at 10 mg/kg, po administered once daily via gavage for 21 days measured at 12 hrs post last dose
[4] = Plasma concentration in mouse xenografted with human SU-DHL10 cells at 20 mg/kg, po administered twice daily via gavage for 21 days measured at 12 hrs post last dose
[5] = Plasma concentration in mouse xenografted with human SU-DHL10 cells at 1 mg/kg, po administered twice daily via gavage for 21 days measured at 2 hrs post last dose
[6] = Plasma concentration in mouse xenografted with human SU-DHL10 cells at 20 mg/kg, po administered twice daily via gavage for 21 days measured at 2 hrs post last dose
[7] = Plasma concentration in mouse xenografted with human SU-DHL10 cells at 1 mg/kg, po administered twice daily via gavage for 21 days measured at 12 hrs post last dose
[8] = Plasma concentration in mouse xenografted with human SU-DHL10 cells at 10 mg/kg, po administered twice daily via gavage for 21 days measured at 12 hrs post last dose
[9] = Plasma concentration in mouse xenografted with human SU-DHL10 cells at 10 mg/kg, po administered once daily via gavage for 21 days measured at 2 hrs post last dose
[10] = Plasma concentration in mouse xenografted with human SU-DHL10 cells at 3 mg/kg, po administered twice daily via gavage for 21 days measured at 2 hrs post last dose

concentration at 2 h [1]: 4320 nM
concentration at 12 h [2]: 18 nM
concentration at 12 h [3]: 207 nM
concentration at 12 h [4]: 32 nM
concentration at 2 h [5]: 556 nM
concentration at 2 h [6]: 4780 nM
concentration at 12 h [7]: 13 nM
concentration at 12 h [8]: 32 nM
concentration at 2 h [9]: 5830 nM
concentration at 2 h [10]: 2620 nM
Compound: Cc1ccc2ncccc2c1-c1cc(-c2c(C)noc2C)cc2nc(C3CC3)[nH]c12
